Measurements: patent publication US12643871B2, “Aryl formamide compound containing chiral sulfur oxide or salt thereof, preparation method, herbicidal composition and use thereof” (Qingdao Kingagroot Chemical Compound Co., Ltd., priority 2019, dated 2026)

Experiments:
Test in all cases: Weeding effect in post-emergence stage
Type in all cases: in vivo
Details in all cases: 250 g/ha; 2 leaf stage; 15 days after application; fresh weight control rate
[1] = system: Abutilon theophrasti
Summary of the method: (§1)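 Reported levels reflect fresh weight growth control rate banded 0 (<5%) through 5 (>85%), averaged over three repetitions. Treatment: foliar spray of 2-leaf-stage greenhouse plants at 15 to 500 g/ha, with 1.5 liter/ha methyl oleate synergist; assessment 15 days after application.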

[2] = system: Digitaria sanguinalis
Summary of the method: as §1

[3] = system: Setaria viridis
Summary of the method: as §1

[4] = system: Amaranthus retroflexus
Summary of the method: as §1

[5] = system: Echinochloa crusgali
Summary of the method: as §1

Row | Structure (SMILES) | weeding effect in post-emergence stage, activity level (growth control rate), Abutilon theophrasti [1] | weeding effect in post-emergence stage, activity level (growth control rate), Digitaria sanguinalis [2] | weeding effect in post-emergence stage, activity level (growth control rate), Setaria viridis [3] | weeding effect in post-emergence stage, activity level (growth control rate), Amaranthus retroflexus [4] | weeding effect in post-emergence stage, activity level (growth control rate), Echinochloa crusgali [5]
1 | COC(C)C[S@@+]([O-])c1c(C(F)(F)F)ccc(C(=O)Nc2nnc(C)o2)c1F (stereo partly drawn) [Compound 74] | 5 (Level 5: growth control rate is above 85%) | 5 (Level 5: growth control rate is above 85%) | 5 (Level 5: growth control rate is above 85%) | 5 (Level 5: growth control rate is above 85%) | 5 (Level 5: growth control rate is above 85%)
2 | CSc1c(C(=O)Nc2nnc(C)o2)ccc(C(F)(F)F)c1[S@+]([O-])CCC(F)(F)F [Compound 560] | 5 (Level 5: growth control rate is above 85%) | 5 (Level 5: growth control rate is above 85%) | 5 (Level 5: growth control rate is above 85%) | 5 (Level 5: growth control rate is above 85%) | 5 (Level 5: growth control rate is above 85%)
3 | Cc1nnc(NC(=O)c2ccc(C(F)(F)F)c([S@+]([O-])CC(C)F)c2F)o1 (stereo partly drawn) [Compound 27] | 5 (Level 5: growth control rate is above 85%) | 5 (Level 5: growth control rate is above 85%) | 5 (Level 5: growth control rate is above 85%) | 5 (Level 5: growth control rate is above 85%) | 5 (Level 5: growth control rate is above 85%)
4 | CSc1c(C(=O)Nc2nnc(C)o2)ccc(C(F)(F)F)c1[S@+]([O-])CCCC(F)(F)F [Compound 561] | 5 (Level 5: growth control rate is above 85%) | 5 (Level 5: growth control rate is above 85%) | 5 (Level 5: growth control rate is above 85%) | 5 (Level 5: growth control rate is above 85%) | 5 (Level 5: growth control rate is above 85%)
5 | CCOC(=O)OC(C)N(C(=O)c1ccc(C(F)(F)F)c([S+]([O-])CC)c1OC)c1nnc(C)o1 (mixture of isomers) [Compound 422] | 5 (Level 5: growth control rate is above 85%) | 5 (Level 5: growth control rate is above 85%) | 5 (Level 5: growth control rate is above 85%) | 5 (Level 5: growth control rate is above 85%) | 5 (Level 5: growth control rate is above 85%)
6 | CCC[S@@+]([O-])c1c(C(F)(F)F)ccc(C(=O)Nc2nnco2)c1F [Compound 357] | 5 (Level 5: growth control rate is above 85%) | 5 (Level 5: growth control rate is above 85%) | 5 (Level 5: growth control rate is above 85%) | 5 (Level 5: growth control rate is above 85%) | 5 (Level 5: growth control rate is above 85%)
7 | COc1c(C(=O)Nc2nnc(C)o2)ccc(C(F)(F)F)c1[S@+]([O-])CCCC(F)(F)F [Compound 326] | 5 (Level 5: growth control rate is above 85%) | 5 (Level 5: growth control rate is above 85%) | 5 (Level 5: growth control rate is above 85%) | 5 (Level 5: growth control rate is above 85%) | 5 (Level 5: growth control rate is above 85%)
8 | COc1c(C(=O)Nc2nnc(C)o2)ccc(C(F)(F)F)c1[S@+]([O-])CCC(C)(C)C [Compound 309] | 5 (Level 5: growth control rate is above 85%) | 5 (Level 5: growth control rate is above 85%) | 5 (Level 5: growth control rate is above 85%) | 5 (Level 5: growth control rate is above 85%) | 5 (Level 5: growth control rate is above 85%)
9 | C#CCC[S@@+]([O-])c1c(C(F)(F)F)ccc(C(=O)Nc2nnc(C)o2)c1OC [Compound 315] | 5 (Level 5: growth control rate is above 85%) | 5 (Level 5: growth control rate is above 85%) | 5 (Level 5: growth control rate is above 85%) | 5 (Level 5: growth control rate is above 85%) | 5 (Level 5: growth control rate is above 85%)
10 | COc1c(C(=O)Nc2nnc(C)o2)ccc(C(F)(F)F)c1[S@+]([O-])CCC(F)(F)C(F)(F)F [Compound 329] | 5 (Level 5: growth control rate is above 85%) | 5 (Level 5: growth control rate is above 85%) | 5 (Level 5: growth control rate is above 85%) | 5 (Level 5: growth control rate is above 85%) | 5 (Level 5: growth control rate is above 85%)
11 | C#CC[S@@+]([O-])c1c(C(F)(F)F)ccc(C(=O)Nc2nnc(C)o2)c1OC [Compound 314] | 5 (Level 5: growth control rate is above 85%) | 5 (Level 5: growth control rate is above 85%) | 5 (Level 5: growth control rate is above 85%) | 5 (Level 5: growth control rate is above 85%) | 5 (Level 5: growth control rate is above 85%)
12 | Cc1nnc(NC(=O)c2ccc(C(F)(F)F)c([S@+]([O-])CCOC(F)(F)F)c2F)o1 [Compound 165] | 5 (Level 5: growth control rate is above 85%) | 5 (Level 5: growth control rate is above 85%) | 5 (Level 5: growth control rate is above 85%) | 5 (Level 5: growth control rate is above 85%) | 5 (Level 5: growth control rate is above 85%)
